Legend:
Human Astrocytes = experiment: Cholesterol efflux (apoE4 lipidation) assay, BODIPY-cholesterol translocation to apoE4; type: cell-based; conditions: Astrocyte, Human astrocytes, efflux to apoE4
Procedure: Cholesterol efflux assay in HTS. CCF-STTG1 cells were plated in 384-well plates containing 50 μL/well RPMI supplemented with 10% FBS at a density of 5×10^3 cells/well, using a Multidrop 384 Reagent Dispenser (Thermo Scientific), and incubated for 48 hr. Cells were washed twice with 50 μl PBS using an EL406 Microplate Washer Dispenser (BioTek, Winooski, Vt., USA) before being labeled with 50 μl of 10 μM BODIPY-cholesterol+100 μM cyclodextrin (CD) in RPMI 1640 medium containing 0.2% BSA. The labeling medium was added using in a Washer Dispenser II (GNF, San Diego, Calif., USA). Plates were transferred automatically to a Liconic incubator (Mauren Principality of Liechtenstein) and incubated for 24 h. Subsequently, cells were washed twice as described above to remove external cholesterol. Next, 50 μl of the efflux medium was added, which contained recombinant apoE4 at a concentration of 40 μg/ml in transparent RPMI 1640 (no phenol red), again using Washer Dispenser II (GNF, San Diego, Calif., USA). The positive control contained the ABCA1 activator, CS-6253 (120 μg/ml) in addition to the acceptor (apoE4). After 7 hr of efflux, the medium was transferred to new plates, using the Bravo Automated Liquid Handling system (Agilent, Santa Clara, Calif., USA). Fluorescence polarization (FP) and fluorescence intensity (FI) of the medium were measured in a PheraStar FS plate reader (BMG Labtech, Ortenberg, Germany).
The apoE4 lipidation Assay is based on measurements of the ability of astrocytes to translocate fluorescently labelled cholesterol to recombinant non lipidated apoE4 and on the extent to which this effect is enhanced by treatment with each of the screened compounds (FIG. 2, 3). This assay is an adaptation of previous studies of cholesterol translocation from labelled astrocytes to external acceptors such as apoE4 [16], except that in order to differentiate between gene expression related effects and direct biochemical effects of the hits on ABCA1, the incubations of the HTS with the cells was limited to 8 hours. The extent to which the cells secret the labelled cholesterol and transfer it to non-lipidated apoE4 was determined by regular fluorescence as well as by fluorescence polarization microscopy. The latter technique in this context is used due to its sensitivity to particle size which decreases the background signal by differentiating between free and particle bound released cholesterol.
The assay was characterized biochemically and it was shown that translocation of labelled cholesterol to apoE4 is time and concentration dependent (FIG. 4) and was increased by the positive control ABCA1 agonistic 26mer peptide CS-6253 [4] (FIG. 5). The assay was used for high throughput screening (HTS) and selection of positive hits. 50,000 compounds from commercially available libraries were screened utilizing the double criteria of a signal greater than 3 standard deviations from the mean of all of the screened compounds, and being similar or greater than the apoE4 lipidation driven by the ABCA1 agonistic peptide CS-6253. Additional criteria included the tier drug ability value with tier 1 being best and tier 3 being least suitable, as well as a hydrophobicity value of 2<log P<5 value. This yielded 14 hits, designated Compounds #1-#14 (FIG. 6).

[1] = test system: apoE4 astrocytic cell line; experiment: Cellular viability / cytotoxicity of the hits; type: cell-based, Rodent; conditions: 50 μM
Procedure: FIG. 10: Effects of test compounds (HTS hits) on cellular viability. Experiments were performed on apoE4 astrocytic cell line in the presence of 50 μM of the indicated compounds. Viability was measured microscopically and by measurements of total cellular protein. (ii) Measurements of cytotoxicity of the hits.

apoE4 TR mice = experiment: Intraventricular Alzet pump administration to apoE4 TR mice, 11 days; type: in vivo; conditions: intraventricular pump 11 days, vs ACSF
Procedure: These experiments utilized the Alzet osmotic pump to administer labeled compounds #10 and N1 into the ventricles of apoE4 TR mice. The Alzet pumps administered 0.25 μl/hr of the compounds for 11 days. The reagents concentrations were […] for compounds #10 and N1, respectively, reaching estimated concentrations of 200 μM and 250 μM in the CSF. As control groups, apoE3 and apoE4 mice injected with artificial cerebrospinal fluid were used. Four groups, each containing 5 mice were used in the experiments. The total SDS levels in the different groups were measured. […] FIG. 16 depicts the results of the high molecular weight complexes indicating the increase in the apoE4 treated with compounds #10 and N1.
High AT180 corresponds to hyperphosphorylated tau which is pathological.

Rodent Astrocytes = experiment: In situ Aβ plaque digestion by apoE4 astrocytes (orthogonal assay); type: cell-based
Procedure: FIG. 7: Schematic representation of assay measuring in situ A$ plaque degradation by apoE3 and apoE4 astrocytes. The assay is designed to measure the ability of astrocytes to digest senile plaques from brain slides of APP mice, which is impaired in apoE4 expressing astrocytes.
FIG. 9: Activity of test compounds (HTS hits) in the plaque digestion assay. Positive control is CS-6253 (25 μg/ml). Test compound concentration is 50 μM.
In situ Aβ plaque degradation by apoE3 and apoE4 astrocytes. This assay is based on measurement of the ability of the astrocytes to clear Aβ plaques following their co-incubation with brain sections of 5×FAD mice, which contain Aβ plaques. Accordingly, 20 μm coronal frozen brain sections were prepared from 9-13-month-old 5×FAD mice using cryostat and placed on glass slides, 3-4 consecutive sections in each slide. The slides were kept at −80° C. until used. At the beginning of the experiment, the slices were incubated for 48 hr at 37° C. with apoE3 and apoE4 astrocytes (10^5 cells in 100 μl medium per slice) in the presence of 50 μM, or otherwise indicated concentrations, of the HTS hits. The slides were gently placed in round petri dishes with thick wet paper, surrounding the slides. PapPen was used to draw liquid repellent borders of the sections to avoid spillage of coating out of the slides. The slides were gently washed of all containing remains by placing them in PBS for 10 minutes, and were then fixated with 4% PFA for 10 minutes, followed by 0.1% Triton solution for 10 minutes. The slides were then incubated with blocking solution (8% Horse Serum, 0.3% Triton, 1 gr/ml BSA, 0.02% Sodium Azide in PBS) for 30 minutes after which they were immunohistochemically stained with primary anti-PAmyloid (6E10) antibody at a dilution of 1:750 in blocking solution for 1 hr at room temperature. This was then followed by washing (×5 with PBST) and incubation with the secondary antibody (Alexa Fluor® 488 donkey α-mouse IgG, A-21202 at dilution of 1:250 at room temperature for 45 minutes. Nuclei were stained with DAPI (Vektashield, Burlingame, Calif.; H-1200). Analysis of the Aβ plaque burden was performed as percentage of the area covered in plaques using the ImageJ software.
(i) Orthogonal assay which monitors the extent to which the hits can reverse the impaired ability of apoE4 astrocytes to digest Aβ senile plaques in vitro. The principle of this orthogonal assay is presented in FIGS. 7 & 8 [17], whereas the activity of the HTS hits in this assay is presented in FIG. 9.

ECD1 of ABCA1 = biological target: T1, ECD1 of ABCA1 (Homo sapiens, UniProt O95477); experiment: Microscale thermophoresis (MST) binding, label free protein; conditions: unlabelled ECD1
T1 construct: The proteins used in these experiments were Extra-Cellular Domain 1 (ECD1) of ABCA1 and Extra-Cellular Domain 2 (ECD2); purchased Biomatick
T1 sequence (O95477 43-639 limits assumed): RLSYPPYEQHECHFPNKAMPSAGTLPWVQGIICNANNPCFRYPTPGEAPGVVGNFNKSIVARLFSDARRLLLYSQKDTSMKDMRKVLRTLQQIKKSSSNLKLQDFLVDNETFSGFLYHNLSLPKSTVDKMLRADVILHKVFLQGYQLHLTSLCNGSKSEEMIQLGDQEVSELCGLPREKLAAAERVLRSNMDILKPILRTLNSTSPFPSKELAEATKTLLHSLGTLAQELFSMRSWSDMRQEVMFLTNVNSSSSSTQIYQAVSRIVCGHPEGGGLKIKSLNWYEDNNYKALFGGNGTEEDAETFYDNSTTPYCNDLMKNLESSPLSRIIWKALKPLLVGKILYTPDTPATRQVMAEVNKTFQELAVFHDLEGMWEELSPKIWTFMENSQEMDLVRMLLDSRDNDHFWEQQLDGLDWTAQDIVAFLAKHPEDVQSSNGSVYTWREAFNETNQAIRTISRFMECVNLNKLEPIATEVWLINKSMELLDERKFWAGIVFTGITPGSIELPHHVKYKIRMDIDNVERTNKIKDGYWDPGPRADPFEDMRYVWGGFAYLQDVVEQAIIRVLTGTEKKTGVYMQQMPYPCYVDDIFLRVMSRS
Procedure: Microscale thermophoresis (MST) measurements. MST measurements of the binding of the HTS hits to the extracellular domain (ECD) of ABCA1 were performed by two complimentary methods utilizing either fluorescently labeled proteins or the endogenous fluorescence of unlabeled proteins. This was pursued as follows:
The experiments were performed with the purified extracellual domains 1 (ECD1) and 2 (ECD2) of ABCA1 [18]. Two complementary MST tests were performed, in which either the proteins were labeled with a fluorescence moiety or the endogenous fluorescence of the unlabeled proteins was monitored).

Compound | EC50 (Human Astrocytes; Table 2) [µM] | EC50 (Human Astrocytes; Table 4) [µM] | Viability Rodent Astrocytes ([1]; Table 2) | Viability Rodent Astrocytes ([1]; Table 4) | Hippocampal phosphorylated tau (AT180) (apoE4 TR mice) | Levels of high molecular weight lipidated ApoE4 (native gels) (apoE4 TR mice) | Total hippocampal ApoE4 levels (total SDS levels) (apoE4 TR mice) | Plaque digestion assay (50 μM) Rodent Astrocytes (Rodent Astrocytes; Table 2) [%] | Plaque digestion assay (50 μM) Rodent Astrocytes (Rodent Astrocytes; Table 4) [%] | Binding to ECD1 (Label free MST) Amplitude (ECD1 of ABCA1) [a.u.] | Kd (ECD1 of ABCA1) [µM]
Cc1cc(C)c(/C=C2\C(=O)Nc3ccccc32)[nH]1 [Hit #10] | > 44.8 | > 44.8 | Normal | Normal | reversed the pathology | increase | reversed the effect | 182 | 182 | – | –
Clc1cc(N2CCOCC2)c2nonc2c1 [Hit #99] | – | > 44.8 | – | – | – | – | – | – | – | 24.15 | 59
O=C(O)CSc1cc(Cl)c2nonc2c1[N+](=O)[O-] [Hit N1] | – | – | – | – | reversed the pathology | increase | reversed the effect | – | – | – | –

From patent publication US20230103965A1, “NOVEL ACTIVATORS OF THE LIPIDATING TRANSPORTER ATP BINDING CASSETTE PROTEIN TYPE 1 (AB-CA1) AND THERAPEUTIC USES THEREOF” (RAMOT AT TEL-AVIV UNIVERSITY LTD., priority 2020, published 2023)
